# What was measured:
# [1] = Modeled human inhaled aerosol pirfenidone pharmacokinetics (FIG. 2, FIG. 5, Table 28)
# Source text: More specifically, the oral route requires a large oral dose to achieve a relatively small lung tissue Cmax. Delivering a similar Cmax without the large systemic dose provides increased efficacy. However, further escalating this direct lung dose, which results in increased systemic exposure, reduces this effect. […] Specifically, a high lung tissue Cmax is important for lung tissue anti-fibrotic efficacy. However, this positive effect appears dependent upon an associated small plasma AUC; the larger the plasma AUC, the lower the efficacy. […] In practice, the oral route of administration is not capable of meeting this U-shaped-restricted dose response. Safety and tolerability prevent further dose escalation of the 801 mg/dose oral medicine (Esbriet®). […] To illustrate these findings, possible human lung tissue and plasma pharmacokinetics following tidal-breath-inhaled aerosol administration were again modeled (FIG. 5). […] These safety and/or tolerability restrictions may be associated with plasma AUC, plasma Cmax, gastrointestinal exposure or a combination of these events. […] However, this limitation could also be set as the plasma Cmax or a combination of these pharmacokinetic parameters.
# Aerosol deliver parameters for the FIGS. 2 and 5 models were based on high-efficiency, mesh-based nebulizer characterization (Table 12). […] Respirable delivered dose (RDD) calculated by the product of fine particle fraction (FPF, %<5 microns) and inhaled mass. […] For this non-limiting example, a FPF of 78% and inhaled mass of 67% was used. Using these numbers, a 90 mg device-loaded dose may produce an RDD of about 47 mg (Table 26 and FIG. 2). […] For this non-limiting example, a FPF of 78% and inhaled mass of 67% was used. Using these numbers, a 230 mg device-loaded dose may produce an RDD of about 120 mg. […] This later dose was modeled to be delivered in 1 minute.
# An additional clinical consideration is the rat plasma AUC showing non-efficacy in the bleomycin model. […] Only lower delivered doses show anti-fibrotic effect. Plasma AUCs obtained from higher intratracheal or oral doses appears to have similar non-efficacy or enhanced disease.
# [2] = Buffer and pH effects study: pirfenidone saturation solubility; assay type: physicochemical; details: thermodynamic from solid
# Experimental: The sample was agitated at ambient temperature overnight. The sample was visually inspected, appearance recorded, centrifuged to sediment any un-dissolved material, and the supernatant withdrawn via syringe through a 0.22 μm PVDF filter. […] The remaining filtered sample was split into three equal volumes in glass vials and placed at 25° C./60 RH, 40° C./75 RH and refrigeration. Samples were wrapped in aluminum foil to reduce light exposure. After the first night of incubation, samples were briefly visually inspected for any signs of discoloration or precipitate formation.
# [3] = Process temperature development study (60°C dissolution, cooling to 25°C); assay type: physicochemical
# Experimental: […]. […] The final volume of each formulation was 5 mL. […] Each sample was mixed thoroughly and agitated overnight at 60° C. Rapid cooling and step-wise cooling from 60° C. to 25° C. was performed. HPLC analysis was performed on samples taken after overnight incubation and after cooling to 25° C. Prior to HPLC analysis, formulations were filtered via syringe through a 0.45 μm PVDF filter.
# [4] = in vivo; cited from earlier work
# [5] = Aerosol tolerability analysis of low concentration dosage forms; details: citrate 5 mM; for Throat Irritation: 3.7 micron
# Source text: Additional observations include maintaining osmolality between about 250 to about 500 mOsmo/kg. The tolerability for formulations with an osmolalty outside this range may be adjusted with modifications in the above formulation parameters and device output and aerosol particle size characteristics.
# [6] = 0% EtOH, 8% PG, 0% PS80, 92% phosphate buffer (5 mM), pH 6.6
# [7] = 0% EtOH, 8% PG, 0.04% PS80, 92% phosphate buffer (5 mM), pH 6.7
# [8] = 4% EtOH, 0% PG, 0.04% PS80, 96% phosphate buffer (5 mM), pH 6.6
# [9] = 4% EtOH, 8% PG, 0% PS80, 88% phosphate buffer (5 mM), pH 6.7
# [10] = 4% EtOH, 8% PG, 0.04% PS80, 88% phosphate buffer (5 mM), pH 6.7
# [11] = MgCl2 130 mM, pH 5.5, pirfenidone 16 mg/mL
# [12] = MgCl2 130 mM, saccharin 0.5 mM, pH 5.5, pirfenidone 16 mg/mL
# [13] = NaCl 100 mM, MgCl2 43.3 mM, pH 5.5, pirfenidone 16 mg/mL
# [14] = NaCl 100 mM, MgCl2 43.3 mM, saccharin 0.6 mM, pH 5.5, pirfenidone 16 mg/mL
structure (smiles),measurement,setting,value
"Cc1ccc(=O)n(-c2ccccc2)c1 [pirfenidone, 5-methyl-1-phenyl-2-(1H)-pyridone]",lung tissue Cmax compared to 801 mg oral dose,"[1]; modeled human, 2.5 mg RDD inhaled over 1 minute",equivalent
same,plasma AUC0-18hrs,"[1]; modeled human, 29 mg RDD, 3 minute tidal-inhaled nebulized dose",13400 ng·h/mL
same,plasma AUC compared to 801 mg oral pirfenidone dose (with food),"[1]; modeled human, 120 mg RDD inhaled over 5 minutes",equivalent
same,human lung tissue Cmax,"[1]; modeled, 29 mg RDD, 3 minute tidal-inhaled nebulized dose",43.2 mcg/gram lung tissue
same,solubility,"[2]; citrate buffer, pH 4, aqueous buffer, Citrate buffer 5 mM, pH 4, ambient temperature overnight",18.4 mg/mL
same,solubility,"[2]; citrate buffer, pH 4, aqueous buffer, Citrate buffer 50 mM, pH 4, ambient temperature overnight",18.1 mg/mL
same,solubility,"[2]; citrate buffer, pH 6, aqueous buffer, Citrate buffer 5 mM, pH 6, ambient temperature overnight",18.4 mg/mL
same,solubility,"[2]; citrate buffer, pH 6, aqueous buffer, Citrate buffer 50 mM, pH 6, ambient temperature overnight",16.4 mg/mL
same,solubility,"[2]; phosphate buffer, pH 6, aqueous buffer, Phosphate buffer 5 mM, pH 6, ambient temperature overnight",18.3 mg/mL
same,solubility,"[2]; phosphate buffer, pH 6, aqueous buffer, Phosphate buffer 50 mM, pH 6, ambient temperature overnight",17.2 mg/mL
same,solubility,"[2]; phosphate buffer, pH 7.5, aqueous buffer, Phosphate buffer 5 mM, pH 7.5, ambient temperature overnight",19 mg/mL
same,solubility,"[2]; phosphate buffer, pH 7.5, aqueous buffer, Phosphate buffer 50 mM, pH 7.5, ambient temperature overnight",16.3 mg/mL
same,solubility,"[2]; water, pH 7.9, water, buffer 0 mM, pH 7.9, ambient temperature overnight",18.4 mg/mL
same,Observations: dissolution after overnight at 60° C.,[3]; [6],Fully dissolved after overnight at
same,Observations: time stable at 25° C. before re-crystallization,[3]; [6],60 °C Stable at 25 °C for >4 hours
same,"Pirfenidone (mg/mL) >60° C., assay content after stepwise cooling to 25° C.",[3]; [6],54.6 mg/mL
same,"Pirfenidone (mg/mL) >Re-crystal, assay content after stepwise cooling to 25° C. and later re-crystallization",[3]; [6],18.6 mg/mL
same,Observations: dissolution after overnight at 60° C.,[3]; [7],Fully dissolved after overnight at
same,Observations: time stable at 25° C. before re-crystallization,[3]; [7],60 °C Stable at 25 °C for >4 hours
same,"Pirfenidone (mg/mL) >60° C., assay content after stepwise cooling to 25° C.",[3]; [7],52.8 mg/mL
same,"Pirfenidone (mg/mL) >Re-crystal, assay content after stepwise cooling to 25° C. and later re-crystallization",[3]; [7],22.3 mg/mL
same,Observations: dissolution after overnight at 60° C.,[3]; [8],Fully dissolved after overnight at
same,Observations: time stable at 25° C. before re-crystallization,[3]; [8],60 °C Stable at 25 °C for >4 hours
same,"Pirfenidone (mg/mL) >60° C., assay content after stepwise cooling to 25° C.",[3]; [8],50.7 mg/mL
same,"Pirfenidone (mg/mL) >Re-crystal, assay content after stepwise cooling to 25° C. and later re-crystallization",[3]; [8],22.4 mg/mL
same,Observations: dissolution after overnight at 60° C.,[3]; [9],Fully dissolved after overnight at
same,Observations: time stable at 25° C. before re-crystallization,[3]; [9],60 °C Stable at 25 °C for >4 hours
same,"Pirfenidone (mg/mL) >60° C., assay content after stepwise cooling to 25° C.",[3]; [9],50.34 mg/mL
same,"Pirfenidone (mg/mL) >Re-crystal, assay content after stepwise cooling to 25° C. and later re-crystallization",[3]; [9],27.6 mg/mL
same,Observations: dissolution after overnight at 60° C.,[3]; [10],Fully dissolved after overnight at
same,Observations: time stable at 25° C. before re-crystallization,[3]; [10],60 °C Stable at 25 °C for >4 hours
same,"Pirfenidone (mg/mL) >60° C., assay content after stepwise cooling to 25° C.",[3]; [10],51.8 mg/mL
same,"Pirfenidone (mg/mL) >Re-crystal, assay content after stepwise cooling to 25° C. and later re-crystallization",[3]; [10],26.8 mg/mL
same,behaviour on rapid cooling to 25°C,[3]; after dissolution at 60°C,rapid recrystallization
same,full dissolution concentration,"[3]; heated to 60°C, 5 mM sodium phosphate pH 6.5 with ethanol, propylene glycol and/or polysorbate 80",≥ 50 mg/mL
same,concentration staying in solution,"[3]; slow step-wise cooling 60 to 25°C, for several hours before re-crystallization",about 50 mg/mL
same,administered pirfenidone excreted in the urine,[4],about 80%
same,Est. Osmolality,[5]; [11],490 mOsmo/Kg
same,Throat Irritation,[5]; [11],3
same,Est. Osmolality,[5]; [12],490 mOsmo/Kg
same,Throat Irritation,[5]; [12],2
same,Est. Osmolality,[5]; [13],430 mOsmo/Kg
same,Throat Irritation,[5]; [13],3
same,Est. Osmolality,[5]; [14],430 mOsmo/Kg
same,Throat Irritation,[5]; [14],2
same,Est. Osmolality,"[5]; NaCl 100 mM, pH 5.5, pirfenidone 4 mg/mL",270 mOsmo/Kg

# From patent US10028966B2 (Avalyn Pharma Inc., priority 2014, dated 2018)
